± gives the standard deviation of the averaged measurements.

Holding throughout (assay): drug sensitivity score (DSS) (DSS score); higher = more sensitive (stronger growth inhibition); extreme values may be limits of the assay
Experiment [1] deals with Ba/F3 P210-BCR-ABL1 RUNX1-/- (mouse). The procedure, abridged: (§1)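 Mouse Ba/F3 cells carrying P210-BCR-ABL1, CRISPR/Cas9-edited at runx1 exon 4 or edited-control clones, were screened against a 528-compound library on pre-printed 384-well plates. Each compound ran at five concentrations spanning a 10,000-fold range, with 10,000 cells per well in RPMI with 10% FBS for 72 h at 37 °C and 5% CO2. CellTiter-Glo luminescence was scaled between vehicle and positive-control wells. A drug sensitivity score summarised each dose-response, averaged over two replicates.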

The test system of experiment [2] is Ba/F3 P210-BCR-ABL1 RUNX1-/mut (mouse). The gist of the method:
as §1

In experiment [3] the test system is Ba/F3 P210-BCR-ABL1 RUNX1wt/wt control (mouse). The gist of the method:
as §1

Consider `CCOC(=O)CCNc1cc(N2CCc3ccccc3CC2)nc(-c2ccccn2)n1` [GSK-J4], for which the drug sensitivity score in experiment [1] was 5.1 ± 4.8; in experiment [2], 4.5 ± 3.8; in experiment [3], 2.45 ± 0.78.

With `C[C@@H]1C=C2C(=O)O[C@@H]3CC[C@H](C1)[C@]23O` [Galiellalactone], the figures for the drug sensitivity score in experiment [1], in experiment [2] and in experiment [3] were 12 ± 3.1, 9.7 ± 4.1 and 5.1, respectively.

For `Cc1cccc(-c2nn3c(c2-c2ccnc4ccc(C(N)=O)cc24)CCC3)n1` [Galunisertib], the drug sensitivity score in experiment [1], in experiment [2] and in experiment [3] was 0 each time.

Consider `Cc1cc(Nc2cc(CN3CCOCC3)c3nc(C)c(Cc4ccc(Cl)cc4F)n3n2)n[nH]1` [Gandotinib], for which the drug sensitivity score amounted to 4.8 ± 0.71 in experiment [1], 4.9 ± 1.6 in experiment [2] and 2.35 ± 0.21 in experiment [3].

Take `CC(C)c1cc(-c2n[nH]c(=O)n2-c2ccc3c(ccn3C)c2)c(O)cc1O` [Ganetespib]: the drug sensitivity score in experiment [1] amounted to 24.8 ± 3.4; in experiment [2], 23.6 ± 2.2; in experiment [3] it was 19.1 ± 0.21.

As for `CN(C)C1CCN(C(=O)c2ccc(NC(=O)Nc3ccc(-c4nc(N5CCOCC5)nc(N5CCOCC5)n4)cc3)cc2)CC1` [Gedatolisib], the results for the drug sensitivity score in experiment [1], in experiment [2] and in experiment [3] were 13.6 ± 0.35, 15.2 ± 0.92 and 4.55 ± 0.071, respectively.

On to `CCc1nc(C(N)=O)c(Nc2ccc(N3CCC(N4CCN(C)CC4)CC3)c(OC)c2)nc1NC1CCOCC1` [Gilteritinib], for which the drug sensitivity score was 6.2 ± 2 in experiment [1], 8.4 ± 2.5 in experiment [2] and 3.25 ± 0.78 in experiment [3].

As to `CCN(CC)Cc1ccc2cc(COC(=O)Nc3ccc(C(=O)NO)cc3)ccc2c1` [Givinostat], the values for the drug sensitivity score in experiment [1], in experiment [2] and in experiment [3] were 13.4 ± 0.28, 12.7 ± 0.57 and 7.9 ± 0.99, respectively.

On to `CN1CC[C@@H](NC(=O)Nc2ccc(C#N)cc2)C[C@@H]1c1nc2ccccc2[nH]1` [Glasdegib], for which the drug sensitivity score in experiment [1] was determined as 0; in experiment [2], 0; in experiment [3], 0.05 ± 0.071.

Regarding `COCCNCc1ccc(-c2cc3nccc(Oc4ccc(NC(=S)NC(=O)Cc5ccc(F)cc5)cc4F)c3s2)nc1` [Glesatinib], the drug sensitivity score in experiment [1] was found to be 7.4 ± 0.14; in experiment [2] it was 3.55 ± 1.1; in experiment [3], 0.

For the molecule `CN1CCN(C2CCN(C(=O)Nc3cc(Oc4ccc(NC(=O)C5(C(=O)Nc6ccc(F)cc6)CC5)c(F)c4)ccn3)CC2)CC1` [Golvatinib], the drug sensitivity score worked out at 3.95 ± 2 in experiment [1], 1.8 ± 2 in experiment [2] and 0 in experiment [3].

For `CC(C)C[C@H](NC(=O)[C@@H](COC(C)(C)C)NC(=O)[C@H](Cc1ccc(O)cc1)NC(=O)[C@H](CO)NC(=O)[C@H](Cc1c[nH]c2ccccc12)NC(=O)[C@H](Cc1cnc[nH]1)NC(=O)[C@@H]1CCC(=O)N1)C(=O)N[C@@H](CCCNC(=N)N)C(=O)N1CCC[C@H]1C(=O)NNC(N)=O` [Goserelin], the drug sensitivity score worked out at 0 in experiment [1], 0.4 in experiment [2] and 0 in experiment [3].

In the case of `O=S(=O)(c1cccc2c(O)nccc12)N1CCCNCC1` [Hydroxyfasudil], the drug sensitivity score in experiment [1] stood at 0.15 ± 0.21; in experiment [2] it was 0.4 ± 0.57; in experiment [3] it was 0.2 ± 0.28.

As for `COc1cc2c(cc1-c1c(C)noc1C)ncc1[nH]c(=O)n([C@H](C)c3ccccn3)c12` [I-BET151], the results for the drug sensitivity score in experiment [1], in experiment [2] and in experiment [3] were 18.6 ± 0.78, 18.4 ± 2.3 and 13.9, respectively.

Turning to `O=C(O)c1ccc(O)c2ncccc12` [IOX-1], the drug sensitivity score in experiment [1] came out at 2.5 ± 2; in experiment [2], 2.4 ± 2.8; in experiment [3], 1.75 ± 0.21.

For `O=C(O)CNC(=O)c1c(O)c2ccccc2n(Cc2ccccc2)c1=O` [IOX-2], the drug sensitivity score in experiment [1] turned out to be 0; in experiment [2], 0.3 ± 0.42; in experiment [3], 0.

Take `C=CC(=O)N1CCC[C@@H](n2nc(-c3ccc(Oc4ccccc4)cc3)c3c(N)ncnc32)C1` [Ibrutinib]: the results for the drug sensitivity score in experiment [1], in experiment [2] and in experiment [3] were 1.5 ± 0.71, 0.2 ± 0.28 and 0.35 ± 0.49, respectively.

Regarding `C#Cc1cccc(Nc2ncnc3cc4c(cc23)OCCOCCOCCO4)c1` [Icotinib], the drug sensitivity score in experiment [1], in experiment [2] and in experiment [3] was 0 throughout.

Take `COc1cc(C(=O)O)ccc1NC(=O)[C@@H]1N[C@@H](CC(C)(C)C)[C@](C#N)(c2ccc(Cl)cc2F)[C@H]1c1cccc(Cl)c1F` [Idasanutlin]: the drug sensitivity score in experiment [1] was determined as 9.4 ± 13; in experiment [2] it was 8.5 ± 12; in experiment [3] it was 5.05 ± 0.21.

With `CC[C@H](Nc1ncnc2[nH]cnc12)c1nc2cccc(F)c2c(=O)n1-c1ccccc1` [Idelalisib], the values for the drug sensitivity score in experiment [1], in experiment [2] and in experiment [3] were 4.7 ± 2.5, 2.3 ± 2.5 and 0, respectively.

In the case of `CCN1CCN(c2ccc(Nc3cc(N(C)C(=O)Nc4c(Cl)c(OC)cc(OC)c4Cl)ncn3)cc2)CC1` [Infigratinib], the drug sensitivity score in experiment [1], in experiment [2] and in experiment [3] was 0 in each case.

For `CC(C)NC[C@@H](C(=O)N1CCN(c2ncnc3c2[C@H](C)C[C@H]3O)CC1)c1ccc(Cl)cc1` [Ipatasertib], the drug sensitivity score in experiment [1] was 4.75 ± 0.92; in experiment [2], 3.4 ± 2.7; in experiment [3] it was 0.3 ± 0.42.

Regarding `CCC(C)n1ncn(-c2ccc(N3CCN(c4ccc(OCC5COC(Cn6cncn6)(c6ccc(Cl)cc6Cl)O5)cc4)CC3)cc2)c1=O` (centres undefined) [Itraconazole], the drug sensitivity score is 3.8 ± 5.4 in experiment [1], 4.6 ± 6.5 in experiment [2] and 7.1 ± 1.3 in experiment [3].

Regarding `N#Cc1ccnc(N2C(=O)CC[C@H]2C(=O)N(c2cncc(F)c2)[C@H](C(=O)NC2CC(F)(F)C2)c2ccccc2Cl)c1` [Ivosidenib], the drug sensitivity score in experiment [1] turned out to be 0.3 ± 0.42; in experiment [2], 1.35 ± 1.9; in experiment [3], 0.

Take `CC(C)C[C@H](NC(=O)CNC(=O)c1cc(Cl)ccc1Cl)B(O)O` [Ixazomib]: the drug sensitivity score in experiment [1] came out at 13.5 ± 2.4; in experiment [2] it was 8.95 ± 1.2; in experiment [3] it was 13.7 ± 1.4.

On to `Nc1cc(COc2c(Cl)cc(C[C@H](N)C(=O)O)cc2Cl)c2oc(-c3ccccc3)nc2c1` [JPH203], for which the drug sensitivity score in experiment [1], in experiment [2] and in experiment [3] was 0 each time.

On to `CC(C)NC(=O)COc1cccc(-c2nc(Nc3ccc4[nH]ncc4c3)c3ccccc3n2)c1` [KD025], for which the drug sensitivity score in experiment [1] was 2 ± 1.7; in experiment [2], 2.3 ± 1.4; in experiment [3], 0.

Consider `O=C(Nc1cnn2ccc(N3CCC[C@@H]3c3cc(F)ccc3F)nc12)N1CC[C@H](O)C1` [Larotrectinib], for which the drug sensitivity score came to 0 in experiment [1], 0.05 ± 0.071 in experiment [2] and 0.7 ± 0.71 in experiment [3].

Consider `Oc1ccc2c(c1)CC[C@H](c1ccccc1)[C@@H]2c1ccc(OCCN2CCCC2)cc1` [Lasofoxifene], for which the drug sensitivity score in experiment [1] came out at 0.15 ± 0.21; in experiment [2], 0.65 ± 0.92; in experiment [3], 0.

With `COc1cc2nccc(Oc3ccc(NC(=O)NC4CC4)c(Cl)c3)c2cc1C(N)=O` [Lenvatinib], the drug sensitivity score in experiment [1] worked out at 2.7 ± 1.1; in experiment [2] it was 0.4 ± 0.57; in experiment [3] it was 0.

As to `Cc1ccc(F)c(NC(=O)Nc2ccc(-c3cccc4[nH]nc(N)c34)cc2)c1` [Linifanib], the drug sensitivity score in experiment [1] stood at 1.1 ± 1.6; in experiment [2], 0.1 ± 0.14; in experiment [3] it was 0.1 ± 0.14.

Turning to `CCNCCS(=O)(=O)NC[C@@]1(c2ccccc2)SC(NC(=O)C(C)(C)C)=NN1C(=O)C(C)(C)C` [Litronesib], the values for the drug sensitivity score in experiment [1], in experiment [2] and in experiment [3] were 24.2 ± 1.6, 21.5 ± 2.4 and 10.9 ± 0.28, respectively.

As for `Nc1nc(OCc2cc(Br)cs2)c2[nH]cnc2n1` [Lomeguatrib], the figures for the drug sensitivity score in experiment [1], in experiment [2] and in experiment [3] were 0, 0.05 ± 0.071 and 0, respectively.

`NC(=O)N1CCC(CC(=O)N2CCC([C@H]3c4ncc(Br)cc4CCc4cc(Cl)cc(Br)c43)CC2)CC1` [Lonafarnib]: the drug sensitivity score in experiment [1] worked out at 12.1 ± 17; in experiment [2], 13.8 ± 9.8; in experiment [3] it was 8.2 ± 0.14.

Consider `Cc1c(F)cc(C(=O)NC2CC2)cc1-c1ccc(C(=O)NCC(C)(C)C)cn1` [Losmapimod], for which the drug sensitivity score in experiment [1] worked out at 2.3 ± 2.4; in experiment [2], 1.8 ± 2.5; in experiment [3], 0.15 ± 0.21.

In the case of `CC[C@H](C)C(=O)O[C@H]1C[C@@H](C)C=C2C=C[C@H](C)[C@H](CC[C@@H]3C[C@@H](O)CC(=O)O3)[C@H]21` [Lovastatin], the drug sensitivity score in experiment [1], in experiment [2] and in experiment [3] was 0 throughout.

Turning to `CNC(=O)c1cccc2cc(Oc3ccnc4cc(OCC5(N)CC5)c(OC)cc34)ccc12` [Lucitanib], the drug sensitivity score turned out to be 3.1 ± 1.1 in experiment [1], 2.95 ± 1.1 in experiment [2] and 0.05 ± 0.071 in experiment [3].

Take `CCNC(=O)c1noc(-c2cc(C(C)C)c(O)cc2O)c1-c1ccc(CN2CCOCC2)cc1` [Luminespib]: the drug sensitivity score turned out to be 29.4 ± 1.7 in experiment [1], 28.7 ± 3.2 in experiment [2] and 18.4 ± 0.57 in experiment [3].
